In patent US20160262394A1, “COMPOSITION COMPRISING AN ACTIVE AND A GRAFT COPOLYMER MADE OF N-VINYLLACTAM, VINYL ESTER, AND AN ALCOHOL ALKOXYLATE” (BASF SE, priority 2013, published 2016):
Values after ≈ are worked out from the molar mass of the structure shown. Values belong to the compound of their own block, whether it stands above or below them.

How the values were obtained:
[1] = Solubilization of active in 3 wt % polymer solution (high-throughput robot, UV/VIS); format: physicochemical
Experimental: Solubilization measurements were carried out with a highthroughput screening robot. This setup dosed 10 mg solid active and […] of the respective 3 wt % liquid polymer solution (in Cl-PAC water D) into wells on a micro titer plate. After the addition of stirring bars and 24 hours incubation time the samples were filtrated via polypropylene filters in order to separate dissolved active and its solid formatted. The amount of solubilized active was determined via UV/VIS spectroscopy.

[2] = at 20° C.; cited from earlier work

Structure (SMILES): CC(O)(Cn1cncn1)c1ccc(Oc2ccc(Cl)cc2)cc1C(F)(F)F (centres unmarked) [2-[4-(4-chlorophenoxy)-2-(trifluoromethyl)phenyl]-1-(1H-1,2,4-triazol-1-yl)propan-2-ol]
Solubility of the triazole fungicide 2-[4-(4-chlorophenoxy)-2-(trifluoromethyl)phenyl]-1-(1H-1,2,4-triazol-1-yl)propan-2-ol ([1]; Active without polymer): 15 ppm

Structure (SMILES): NC(=O)N1c2ccccc2C=Cc2ccccc21 [cabamazepine]
Solubility of cabamazepine ([1]; Active without polymer): 181 ppm

Structure (SMILES): N#Cc1nn(-c2c(Cl)cc(C(F)(F)F)cc2Cl)c(N)c1[S+]([O-])C(F)(F)F (centres unmarked) [fipronil]
Solubility of fipronil [1]: 12 ppm

Solubility of Xemium ® (fluxapyroxad) ([1]; Active without polymer): 10 ppm
Structure (SMILES): Cn1cc(C(=O)Nc2ccccc2-c2cc(F)c(F)c(F)c2)c(C(F)F)n1 [fluxapyroxad]
water solubility [2]: 4 µg/mL (≈ 10.5 µM)
